Reference: patent US12527977B2, “Combined neuromodulation techniques” (GE Precision Healthcare LLC, priority 2021, dated 2026)

Legend:
[1] = system: Zucker diabetic fatty (ZDF) rat model; assay: Chronic non-fasted blood glucose monitoring in ZDF rats, drug combined with pFUS ultrasound stimulation; format: in vivo
From the text: The following relates to the diabetic animal model used and the method of ultrasound neuromodulation. • Animal Model of Type 2 Diabetes • Zucker diabetic fatty (ZDF) rat model Adult male ZDF rats (Charles River, Kingston, NY USA) were ordered for arrival prior to 8 weeks of age. All animals were maintained on a high caloric rodent chow (Purina 5008), provided, with water, provided ad libitum. […] All procedures performed in accordance with the National Institutes of Health (NIH) Guidelines under protocols approved by the Institutional Animal Care and Use Committee (IACUC) of GE Global Research. ZDF animals were acclimated by daily handling to prevent stress-induced changes in circulating glucose. […] All rats were anesthetized at 1-4% isoflurane at 1 L/min O2. Rats were then placed on a water circulating warming pad, with a rectal thermometer probe to maintain body temperature. The abdominal area was completely shaved and the hair fully removed with Nair to allow for later stimulation of nerve plexus located in either the hepatic or GI systems. […] These locations were then marked with a permanent marker and a ultrasound stimulation probe was placed on the target area. The prototype pFUS device then delivered 3 minutes of stimulation (1.1 MHz, 150 burst cycles, 500 us burst period) Blood glucose levels of the rats were monitored on a daily basis for chronic studies and at 5-minute intervals for acute and OGTT studies. In chronic studies additional blood samples were collected on a weekly basis for the analysis of circulating markers. A final terminal blood sample was collected at the time of euthanization and used for the evaluation of circulating insulin levels. For the prototype pFUS device, stimulus (1.1 MHZ, 200 mV per pulse, 150 burst cycles, 500 us burst period) was applied to each region for 3 minutes per target. For example, pFUS was initially applied to the hepatic portal region for 3 minutes. […] There was an about 5 minute delay period in between stimulation of the first and second, or second and third anatomical target sites. Blood samples obtained from the tail vein were used to assess daily glucose (for chronic studies) and 5-minute glucose intervals (for acute studies) using a Freestyle Freedom Lite (Abbott Diabetes Inc., Alameda, CA, US). The Freestyle Freedom Light meter using a small blood 15 volume (0.3 uL) and as such no additional fluids were needed to recover total volume following blood sampling. Combination of pharmaceutical intervention and pFUS therapy was tested to determine the effects of dual therapies on therapeutic window as well as duration of efficacy. […] This dosing regimen (timing) is identical to that used in humans with dosing to occur prior to both morning and evening mealtimes. […]

[2] = system: Zucker diabetic fatty (ZDF) rat model; conditions: previously shown treatment, cited from earlier work
[3] = low dose metformin alone cohort, FIG. 9 data 304

Row | Compound | remission after ultrasound cessation ([1]; low dose metformin added to dual-site stimulation (7 days ultrasound, then stopped), FIG. 9 data 302) | blood glucose [1, 3] | effectiveness (absolute decrease in blood glucose or length of time spent below 200 mg/dL) versus liraglutide alone [1, 3] | blood glucose reduction duration versus single site plus liraglutide cohort ([1]; low dose metformin plus single site (hepatoportal plexus) stimulus, FIG. 9 data 306) | effect in ZDF animals far along in disease progression ([2]; FGF1 icv, animals with >300 mg/dL average glucose) | remission in the ZDF model ([2]; FGF1 injection into the intracerebroventricular (icv) space) [week]
1 | CN(C)C(=N)N=C(N)N [Metformin] | did not result in extended remission | temporary drop below 200 mg/dL | not as effective as the liraglutide alone cohort | not as effective |  | 
2 | FGF1: FGF1 injected into the intracerebroventricular space; previously reported treatment |  |  |  |  | failed to work | 4
